Data on three compounds can be found in patent US20230250183A1, “POLYPEPTIDE THAT SPECIFICALLY BINDING TO CD123 PROTEIN, POLYPEPTIDE COMPLEXE, CO-DELIVERY SYSTEM AND PREPARATION METHOD AND USE THEREOF” (Institute of Basic Medical Sciences Chinese Academy of …, priority 2020, published 2023).

Structures can show the parent of a compound that is named as a salt. No end group written: not given here.

The subject of one data set is HUVEC cells. The data set is described as follows: Effect of co-delivery system on the activity of HUVEC cells (CCK-8). The format is cell-based, human. The note with it: Dox 0.1 μM, polypeptide 2.1 μM, 24 hours, CCK8. The method, then: (§1) HUVEC cells were inoculated in 96-well plates with 1×10^4 cells per well, and grouping was the same as experiment 8. Corresponding drug stock solutions were added into each well in each experimental group to make the final Dox concentration of each well is 0.1 μM and the final corresponding polypeptide concentration of each well is 2.1 μM. Incubated at 37° C. in 5% CO2 incubator for 24 hours, then washed with PBS, and 110 μL CCK8 diluent (including 100 μL RPMI 1640 medium+10 μL CCK-8) was added in each well, followed by incubation for 2 h. The absorbance values (OD value) at wavelengths of 450 nm and 630 nm were measured by a microplate reader, and the percent viability of cells was calculated according to Formula 1, and the control group was the cells without drug treatment, denoted as Con.

The subject of data set [1] is MOLM-13 cells. The data set is described as follows: Effect of co-delivery system on the activity of MOLM-13 cells (CCK-8). Format: cell-based. To be noted: human, 24 h. The method, then: The following experimental groups were set and stock solutions for experiment were configured, including:
1) Polypeptide PO-6 group (PO-6): polypeptide stock solution obtained in Example 1 (polypeptide concentration is 1 mM);
2) Doxorubicin (Dox) group: doxorubicin hydrochloride was dissolved in sterile water to obtain 1 mg/mL (1.7 mM) Dox stock solution;
3) High polymer group (mPEG2000-PCL2000): 15 mg mPEG2000-PCL2000 powder was weighted and dissolved with 1 mL PBS solution to obtain 15 mg/mL (3.3 mM) mPEG2000-PCL2000 stock solution.
4) Polypeptide PO-6 and Dox combination group (PO-6+Dox): the polypeptide stock solution in experimental group 1) and the Dox stock solution in experimental group 2) were diluted with PBS solution respectively, then mixed to obtain a mixed solution. The concentration of polypeptide was 36.2 μM, the concentration of Dox was 17.24 μM, and the weight ratio of polypeptide PO-6 to Dox was 10:1 in the mixed solution; […]
Experimental procedure: MOLM-13 cells were inoculated in 96-well U-shaped plates with 8×10^4 cells per well. […] The absorbance values (OD value) at wavelengths of 450 nm and 630 nm were measured by a microplate reader, and the percent viability of cells was calculated according to Formula 1, and the control group was the cells without drug treatment, denoted as Con; […]

Data set [2] is described as follows: Effect of co-delivery system on the activity of HUVEC cells (CCK-8). Format: cell-based, human. To be noted: human, Dox 0.1 μM, polypeptide 2.1 μM, CCK8, read-out: percent viability of cells. Here is the method: as §1
The test system of data set [3] is K562 cells (CD123-negative). The data set is described as follows: Polypeptide binding to K562 cells by flow cytometry. The note with it: FITC-labeled polypeptide 0.5, 1, 5 and 10 μM, 37° C., 0.5 h. The method, then: (§2) MOLM-13 and K562 cells were inoculated into 48-well plates with 2×10^5 cells per well, respectively, and FITC-labeled polypeptides listed in Table 1 were added to make the final concentrations of polypeptides were 0.5 μM, 1 μM, 5 μM and 10 μM, respectively. Incubate at 37° C. in 5% CO2 incubator for 0.5 h. After incubation, washed once with PBS solution, centrifuged at 1500 rpm for 5 min, and the supernatant was discarded, and 100 μL PBS solution was added to each well to re-suspend the cells, and 300 mesh sieve was used for filtration. Flow cytometry was used for determination of the mean fluorescence intensity (MFI) of MOLM-13 and K562 cells, and MFI was used as indication of the binding quantity of polypeptide on cells. FIGS. 2 and 3 show the quantity of polypeptides bound to cells.

The test system of data set [4] is MOLM-13 cells (CD123-positive). The data set is described as follows: Polypeptide binding to MOLM-13 cells by flow cytometry. The note with it: FITC-labeled polypeptide 0.5, 1, 5 and 10 μM, 37° C., 0.5 h. Here is the method: as §2
In data set [5] the test system is MOLM-13 cells. The data set is described as follows: Binding of polypeptide, polypeptide complex to MOLM-13 observed by laser scanning confocal microscope. The note with it: FITC-labeled, polypeptide 0.5 μM, 0.5 h. The method, then:
MOLM-13 cells (2×10^5 cells per well) were incubated with FITC-labeled polypeptides (taking PO-6, and PO-6N as examples) and polypeptide complexes (see Table 2) at 37° C. for 30 min, and the final concentration of polypeptides was 0.5 μM (the final concentration of polypeptides in the cultivation system of polypeptide complexes was also 0.5 μM). After incubation, the cells were collected and washed twice with PBS solution, centrifuged at 1500 rpm for 5 min, and the supernatant was discarded. 400 μL paraformaldehyde in PBS aqueous solution (containing 4 wt % paraformaldehyde) was added to each well, and they were placed in dark at room temperature for 30 min, so that the cells were fixed by paraformaldehyde. washed once with PBS solution, centrifugated at 2000 rpm for 5 min, and the cells were dropped on the glass slide to dry naturally, and then was sealed with a mounting medium containing DAPI (4′, 6-diamidino-2-phenylindole). Laser scanning confocal microscope (Ex=488 nm (FITC); Ex=405 nm (DAPI)) was used for observation and photographing. MOLM-13 cells without any treatment were taken as the control group, i.e., Con. Photos of polypeptide PO-6 and PO-6N and corresponding polypeptide complexes (taking C-1 and C-1′ as examples) are shown in FIG. 9 and FIG. 10. […]

As to `COc1cccc2c1C(=O)c1c(O)c3c(c(O)c1C2=O)C[C@@](O)(C(=O)CO)C[C@@H]3O[C@H]1C[C@H](N)[C@H](O)[C@H](C)O1` [Dox, doxorubicin hydrochloride, reference compound], the “percent viability of cells” value is reported as “about 50%” with HUVEC cells and 57% with MOLM-13 cells [1] (0.1 μM).

Usually viability stands for a read-out of living cells in per cent, often relative to untreated cells. Consider DDDYDTRAQGTDIGCDFRRISDDD [PO-6], for which the viability at 24 h, 2.1 µM in data set [2] is greater than 90%. For the same compound, in the data set on MOLM-13 cells [1] (0.21 μM), the “percent viability of cells” value was found to be 98%.

GGDDDYDTRAQGTDIGNDFRRISDDD [PO-6N]: in data set [3], the “binding quantity to K562 cells (mean fluorescence intensity of FITC)” value was “very weak”. Also, in data set [4], the “binding quantity to MOLM-13 cells (mean fluorescence intensity of FITC)” value was “can bind”. The “green fluorescence on the cell surface compared with Con” value in the data set with MOLM-13 cells [5] is on record as “obvious green fluorescence”.
